“Also recorded” adds a separate entry of the source.
Tests used:
neutrophils and PBMCs = assay: Radiolabeled DANBIRT uptake in isolated blood components after ozone exposure; type: cell-based, rats; conditions: rat blood collected 24 hours post-exposure, 1 hour incubation
Method: • 6 week old ApoE KO C57 black male • SPECT imaging 3 hrs and 24 hrs post tail vein Injection of ˜700 uCi (˜25.9 Mbq) of ^111In-DANBIRT • Autoradiography was performed 24 hrs PI of ^111In-DANBIRT after the last imaging time point, • We focused on 3 areas for our region of interest analysis: Aortic arch, carotids and thymus: normalized to muscle. • Whole blood incubation with ^68Ga-DANBIRT and subsequent neutrophil and PBMC isolation were performed from rat blood from animals exposed to filtered air and ozone. • 2 groups: Filtered air (n=3) and ozone (n=3) • Whole blood was collected 24 hrs post exposure • Whole Blood Separation was performed after incubation with ^68Ga-DANBIRT, obtaining 4 samples: serum, red blood cells, neutrophils and peripheral blood mononucleated cells. Staining was performed for specific morphology interpretation and smear cell line purity assessment. Results
Rats were exposed to either filtered air (FA) or ozone (1.0 ppm) for 4 hours using an OREC silent are discharge ozone generator (Osmonics, Phoenix, Ariz.); ozone concentrations were continuously monitored over the course of 4 hours. Exposures took place in a chamber without bedding to minimize ozone scrubbing and to ensure consistent nasal exposures. Whole blood was collected 24 hours post-exposure. Histopaque two-step gradient (Sigma Aldrich, 10771) neutrophil isolation protocol was performed following manufacturer's methods; modified protocol was included for PBMC isolation. Hetastarch at 5% (B. Braun, L6511) was added to whole blood before running isolation protocols. Cell samples were washed and suspended in 1% Gelatin in PBS at a pH of 7.2. Final volumes of neutrophil and PBMC samples were increased to 1 mL. Final samples were identified as serum, RBC, neutrophils and PBMCs and incubated for 1 hour with [^68Ga] Ga-DANBIRT (specific activity of 625 mCi/pM). […] Cell morphology, differentials and sample purity were assessed using a light microscope at 40× objective (Olympus BX51).

[1] = In vitro stability of radiolabeled DANBIRT in fetal bovine serum and 0.9% saline; type: in vitro ADME; conditions: FBS and 0.9% saline, 4 hours
Method: Incubation of [^68Ga] Ga-DANBIRT with Fetal Bovine Serum (FBS) (Atlanta Biologicals, S11150) and 0.9% saline solution was performed in vitro stability analysis. Triplicate samples were drawn from radiolabeled stock and kept incubated at 37° C. until time of analysis. ITLC was performed once at each time point and HPLC assessment was performed in triplicates at baseline, 5, 10, 30, 60, 120 and 240 minutes of incubation. The mean incorporation yield and radiochemical purity were calculated from sample results. Following methods by Poria et al methods were modified for use in a Ultra-Performance Liquid Chromatography (UPLC) using an Acquity UPLC BEH C-18 1.7 μm column (2.1×50 mm) (Waters Corporation, 186002350). UPLC gradient with flow rate is described in FIG. 14.

[2] = Ex vivo biodistribution of [111In] In-DANBIRT post tail vein injection in ApoE-/- mice
Method: • Animals were imaged for ˜75 minutes 3 hrs post tail vein injection of ˜700 uCi (˜25.9 Mbq) of ^111In-DANBIRT • Atorvastatin was administered in the drinking water and PPAR-Delta agonist (GW1516) was incorporated into food pellets by diet manufacturing company. • Organ and serum collection for bio distribution and lipid levels and sub particles size analysis was performed after last imaging time point
Upon completion of 8 weeks on normal or HFD, mice were euthanized 3 hours post-injection of 700 μCi of [^111In] In-DANBIRT via tail vein; organs were harvested for weight assessment and [^111In] In-DANBIRT uptake using an Automatic Wizard 2 Gamma counter (Perkin Elmer). Organs collected were: tail, whole blood, aorta (from aortic arch to thoracic aorta), carotids (front aortic arch to bifurcation), heart, liver, muscle and adipose tissue. Whole blood was collected with direct cardiac puncture of right ventricle using a 24-gauge needle of right ventricle with a heparinized syringe and centrifuged for 15 minutes at 1000 g at 4° C. Serum, erythrocytes (RBC) and leukocytes (WBC) containing isolated samples were collected and measured for [^111In] In-DANBIRT uptake using a gamma counter. Uptake was decay-corrected and percent-injected activity per gram (% IA/gr) was determined for each mouse.

LFA-1 receptor [3] = target: T1, LFA-1 receptor (Rattus norvegicus, UniProt F1LP44); assay: Radioisotopic dilution / competitive leukocyte binding assay; conditions: compared to neutrophil sample, p<0.05
T1 construct: endogenous in cells; host or cells: neutrophils and PBMCs from whole blood of male Sprague Dawley rats
T1 sequence (F1LP44 24-1161): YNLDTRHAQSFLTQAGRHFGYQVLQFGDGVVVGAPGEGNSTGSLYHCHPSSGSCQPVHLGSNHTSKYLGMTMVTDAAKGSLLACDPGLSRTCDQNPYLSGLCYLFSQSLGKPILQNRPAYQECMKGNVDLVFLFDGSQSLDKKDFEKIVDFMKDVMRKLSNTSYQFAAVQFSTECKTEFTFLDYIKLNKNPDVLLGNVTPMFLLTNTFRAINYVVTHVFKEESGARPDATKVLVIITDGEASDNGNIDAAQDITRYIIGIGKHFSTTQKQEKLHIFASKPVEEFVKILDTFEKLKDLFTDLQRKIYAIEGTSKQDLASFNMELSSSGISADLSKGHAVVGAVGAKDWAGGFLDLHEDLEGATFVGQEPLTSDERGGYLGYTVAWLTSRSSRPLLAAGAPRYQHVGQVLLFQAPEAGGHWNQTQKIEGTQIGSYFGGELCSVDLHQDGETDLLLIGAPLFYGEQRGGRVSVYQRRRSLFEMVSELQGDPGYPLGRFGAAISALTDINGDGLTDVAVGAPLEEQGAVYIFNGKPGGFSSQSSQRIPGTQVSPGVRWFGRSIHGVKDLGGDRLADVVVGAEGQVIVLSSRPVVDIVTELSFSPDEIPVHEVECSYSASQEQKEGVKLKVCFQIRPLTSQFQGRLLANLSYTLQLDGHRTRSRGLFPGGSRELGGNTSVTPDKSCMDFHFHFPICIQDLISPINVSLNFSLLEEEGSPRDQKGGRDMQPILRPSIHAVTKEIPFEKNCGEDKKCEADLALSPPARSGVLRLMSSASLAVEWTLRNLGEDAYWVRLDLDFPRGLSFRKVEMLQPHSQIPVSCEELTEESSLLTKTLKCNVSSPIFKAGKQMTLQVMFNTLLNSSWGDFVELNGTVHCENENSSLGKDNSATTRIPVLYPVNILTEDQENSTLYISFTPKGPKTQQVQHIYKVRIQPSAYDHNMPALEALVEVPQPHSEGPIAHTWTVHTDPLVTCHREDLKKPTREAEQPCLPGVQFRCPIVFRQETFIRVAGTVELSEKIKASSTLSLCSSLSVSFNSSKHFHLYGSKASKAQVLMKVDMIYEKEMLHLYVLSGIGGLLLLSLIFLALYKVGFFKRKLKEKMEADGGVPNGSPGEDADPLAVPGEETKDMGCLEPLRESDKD
Method: (§1) Radioisotopic dilution methods were performed with log-fold serial dilutions at concentrations of 1:1, 1:10, 1:100 and 1:1000 radiolabeled DANBIRT. Rat whole blood was collected and incubated for 10 minutes with [^111In] In-DANBIRT. Leukocyte isolation was performed for neutrophil and PBMC separations post-incubation with radiolabeled DANBIRT (specific activity 625 mCi/pM). Cytospin 2 (Shandon 2,59900002) with double-funnel and white filter (Simport, 930941126) was used for clustered cell differentials identification methods. Cytospin samples were spread in Superfrost Plus slides (VWR, 48311-703) and fixed with […]. Wright-Giemsa horizontal staining protocol was performed according to manufacturer's package insert instructions (Sigma Aldrich, SLBN4704V). Cell morphology, differentials and sample purity were assessed using a light microscope at 40× objective (Olympus BX51).

LFA-1 receptor [4] = assay: as above; design: species or system Rat; conditions: serum, RBC and PBMC samples
Method: as §1

LFA-1 [5] = target: T2, LFA-1 (Mus musculus, UniProt P24063); assay: 3 hr [111In] In-DANBIRT SPECT/CT imaging of ApoE-/- mice; type: in vivo; conditions: HFD fed mice, 3 hr post injection, baseline, 4th and 8th week, normalized to muscle
T2 construct: presence of inflammatory LFA-1 in immune and cardiovascular tissues; from tissue; host or cells: living or euthanized male ApoE-/- C57BL/6 mice: heart, aortic arch, descending aorta, carotids, thymus
Method: (§2) Methods: 6 week ApoE […] mice were fed either normal or high fat chow (n=8 per group) for 8 weeks to induce vascular atherosclerotic lesions. SPECT/CT imaging was performed 3-hrs post injection of ˜700 uCi of ^111In-DANBIRT at baseline, 4 weeks and 8 weeks. Whole body Autoradiography was performed 24-hrs post injection after 8-week time point. Image processing and analysis was performed by region of interest (ROI) determination in relationship to voxel and volume, uptake quantification was normalized to muscle uptake. Blood partition assays were conducted to ascertain specific binding components. […]
Animals were imaged at […] following 700 μCi via tail vein injection of [^111In] […] Regions of Interests (ROI) were determined and drawn using the best quality image phantom from reconstructed CT (Table 3) to determine muscle, adipose, heart, aortic arch and descending aorta organs using VivoQuant 2.00 (inviCRO, Boston, Mass.). […] Concentration and sum per volume normalized to muscle was determined to identify accurate measurements and eliminate ROI signal interference from adjacent tissues. […]

LFA-1 [6] = target: T2, LFA-1; assay: 24 hr [111In] In-DANBIRT 3D autoradiography of ApoE-/- mice; type: in vivo
Method: as §2
Mice were euthanized by CO2 method after 8 weeks of dietary assessment. […] Autoradiography and white light files were compiled and analyzed using VivoQuant 2.00 (inviCRO, Boston, Mass.). Determined ROI were drawn using the best quality image phantom from reconstructed CT (FIG. 14, Table 3) for the thymus, muscle, carotids and aortic arch. […]

[7] = 8 weeks of diet, 3 hours post-injection, p<0.05

T2 sequence (P24063 24-1162): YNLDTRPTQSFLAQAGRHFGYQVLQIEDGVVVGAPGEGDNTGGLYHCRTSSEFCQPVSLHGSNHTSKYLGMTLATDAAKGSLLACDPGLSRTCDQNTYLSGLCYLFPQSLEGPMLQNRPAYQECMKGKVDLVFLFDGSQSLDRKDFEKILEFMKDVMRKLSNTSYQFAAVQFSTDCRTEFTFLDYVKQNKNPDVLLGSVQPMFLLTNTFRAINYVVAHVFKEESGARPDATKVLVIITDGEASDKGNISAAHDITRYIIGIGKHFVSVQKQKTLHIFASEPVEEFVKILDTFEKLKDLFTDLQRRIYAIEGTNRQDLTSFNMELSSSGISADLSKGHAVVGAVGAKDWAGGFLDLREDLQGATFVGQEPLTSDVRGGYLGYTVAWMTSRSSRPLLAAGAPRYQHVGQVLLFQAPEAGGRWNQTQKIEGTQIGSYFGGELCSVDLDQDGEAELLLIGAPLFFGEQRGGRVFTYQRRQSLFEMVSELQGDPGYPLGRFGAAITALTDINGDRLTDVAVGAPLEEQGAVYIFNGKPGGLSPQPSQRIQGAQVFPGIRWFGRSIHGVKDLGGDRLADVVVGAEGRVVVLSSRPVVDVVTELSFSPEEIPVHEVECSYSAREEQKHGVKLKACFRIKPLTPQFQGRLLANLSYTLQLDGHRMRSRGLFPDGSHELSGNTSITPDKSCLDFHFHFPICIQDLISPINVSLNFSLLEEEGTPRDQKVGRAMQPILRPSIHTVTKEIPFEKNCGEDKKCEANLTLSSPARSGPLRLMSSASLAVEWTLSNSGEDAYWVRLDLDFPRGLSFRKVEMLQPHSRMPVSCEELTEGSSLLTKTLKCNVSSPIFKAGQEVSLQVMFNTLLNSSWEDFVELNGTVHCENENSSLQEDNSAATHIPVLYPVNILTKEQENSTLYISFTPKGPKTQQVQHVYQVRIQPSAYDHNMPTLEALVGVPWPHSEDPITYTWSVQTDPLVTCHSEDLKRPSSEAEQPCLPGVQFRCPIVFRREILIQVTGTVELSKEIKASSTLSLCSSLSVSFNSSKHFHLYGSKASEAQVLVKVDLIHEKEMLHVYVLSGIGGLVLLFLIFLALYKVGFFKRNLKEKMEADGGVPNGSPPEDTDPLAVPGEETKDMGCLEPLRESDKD
T2 sequence (P11835 24-771 partner): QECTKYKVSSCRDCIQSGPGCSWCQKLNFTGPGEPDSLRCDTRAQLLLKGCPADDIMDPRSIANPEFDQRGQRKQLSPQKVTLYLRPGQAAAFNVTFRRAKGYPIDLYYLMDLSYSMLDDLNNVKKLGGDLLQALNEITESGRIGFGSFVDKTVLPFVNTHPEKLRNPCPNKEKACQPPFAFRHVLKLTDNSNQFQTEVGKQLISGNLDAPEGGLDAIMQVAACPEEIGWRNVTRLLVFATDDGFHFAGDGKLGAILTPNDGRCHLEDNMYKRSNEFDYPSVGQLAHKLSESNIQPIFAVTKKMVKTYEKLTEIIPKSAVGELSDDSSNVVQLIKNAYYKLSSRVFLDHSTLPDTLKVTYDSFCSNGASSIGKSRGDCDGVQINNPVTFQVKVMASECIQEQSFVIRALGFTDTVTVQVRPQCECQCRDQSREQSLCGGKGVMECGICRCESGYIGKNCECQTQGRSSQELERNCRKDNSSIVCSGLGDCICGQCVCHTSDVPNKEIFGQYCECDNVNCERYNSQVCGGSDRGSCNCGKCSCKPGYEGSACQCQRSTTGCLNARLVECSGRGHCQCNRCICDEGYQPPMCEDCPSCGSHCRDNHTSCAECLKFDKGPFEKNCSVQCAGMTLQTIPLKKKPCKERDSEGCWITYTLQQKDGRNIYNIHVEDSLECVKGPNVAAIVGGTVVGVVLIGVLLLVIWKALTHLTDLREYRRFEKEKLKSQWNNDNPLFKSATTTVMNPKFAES

## C[C@]1(Cc2ccc(Br)cc2)C(=O)N(c2cc(Cl)cc(Cl)c2)C(=O)N1CCCCNC(=O)CN1CCN2CCN3CCN(CC1)CC(=O)[O][68Ga]([O]C(=O)C2)[O]C(=O)C3 [[^68Ga] Ga-DANBIRT]
Neutrophils and PBMCs
  uptake in PBMCs post-ozone exposure: decreased uptake; also recorded: decrease
  uptake in serum post-ozone exposure: decrease
Neutrophils and PBMCs; p=0.008
  uptake in neutrophils post 4-hour ozone exposure vs filtered air: increased uptake

## C[C@]1(Cc2ccc(Br)cc2)C(=O)N(c2cc(Cl)cc(Cl)c2)C(=O)N1CCCCNC(=O)CN1CCN2CCN3CCN(CC1)CC(=O)[O][111In]([O]C(=O)C2)[O]C(=O)C3 [[^111In] In-DANBIRT]
[1]
  stability on incubation: maintained throughout 4 hours of incubation
[2]; [7]
  uptake in RBC and WBC samples, HFD vs normal diet: increased uptake
  uptake in cardiovascular tissues (heart, aorta, carotids), HFD vs normal diet: higher uptake
[2]; 8 weeks of diet, p<0.05
  % IA/gr of tissue, HFD vs normal diet: increase
[2]; 3 hours post-injection
  uptake in adipose tissue and muscle: low uptake
[2]; 3 hours post-injection of 700 μCi
  uptake in serum compared to other blood components: high uptake
[2]; 3 hours post-injection of 700 μCi, regardless of dietary treatment
  uptake in liver compared to other tissues: high uptake
[2]; Example 2, 1st cohort
  organ bio distribution uptake in liver, serum, aorta and blood components: significant uptake
LFA-1 receptor [3]
  saturation in PBMCs at different dilution concentrations: did not evidence any saturation levels
LFA-1 receptor [4]
  decrease of initial uptake after each log fold dilution concentration: 50%
LFA-1 [5]
  uptake in heart, aortic arch and descending aorta ROI (SPECT/CT): longitudinal increased uptake; also recorded: Increased longitudinal uptake
LFA-1 [5]; listed as 111In-DANBIRT
  uptake in heart, aortic arch and descending aorta ROI (SPECT/CT): longitudinal increase in uptake
LFA-1 [6]; 24 hr post injection after 8 weeks of diet
  uptake in carotids and thymus, concentration per volume normalized to muscle, HFD vs normal diet: increase; also recorded: Increased uptake
LFA-1 [6]; Example 1, autoradiography and SPECT/CT analysis
  uptake in the thymus: Increased uptake

From patent US10744214B2, “Method of diagnosing and/or monitoring therapy of atherosclerosis” (STC.UNM, priority 2015, dated 2020)
